These results are taken from a melting point compilation (Tetko et al.; mined from patent text by program, amines drawn as free bases though some values may be those of a salt).

Bounds are passed on as bounds.

For `O=C(O)C(Sc1ccc(Cl)cc1)c1ccc(Oc2ccccc2)cc1` (stereo not drawn), the melting point was 121 to 125 °C.

As for `COc1cc2c(cc1Cl)CC(=O)NN=C2c1ccc(N)cc1`, the melting point lay within 234 to 236 °C.

The compound `ON=CCc1ccccc1` displayed a melting point of 90 to 94 °C.

In turn, `CSc1cccc2nc3sccn3c(=O)c12` gave a melting point of 186 to 189 °C.

Turning to `CCCCSc1cc(C(=O)OCC)cc(S(N)(=O)=O)c1Cl`, the melting point was in the range of 160 to 162 °C.

In turn, `Cc1csc2c(CSc3nc4ccccc4[nH]3)nccc12` returned a melting point of 160 to 162 °C.

With `Oc1cccc(Nc2nnc(Cc3ccncc3)c3ccccc23)c1`, the melting point is 217 to 219 °C.

`Cc1nc(N2CCN(CC3CC3)C2=O)sc1C(N)=O` gave a melting point of 198 to 200 °C.

The compound `Oc1ccc(CCn2ccn(C3CCc4ccccc4C3)c2=S)cc1O` (stereo not drawn) gave a melting point of 165 to 167 °C.

`O=C1c2ccccc2C(=O)N1CCc1c[nH]c2ccc(CNS(=O)(=O)c3ccccc3)cc12` had a melting point of 225 to 226 °C.

`CCSC(=NC(C)=O)Nc1c(Cl)cccc1Cl` registered a melting point of 97 to 100 °C.

`COc1ccc(Nc2ccnc(Nc3cc(OC)c(OC)c(OC)c3)n2)cc1` had a melting point of 210 °C.

The compound `CCOC(=O)c1cnc2c(cnn2-c2ccccc2)c1N(Cc1ccccc1)S(=O)(=O)c1ccc(OC)cc1` yielded a melting point of 124 to 126 °C.

In the case of `NC(=O)c1nnn(Cc2cc(Cl)c(S(=O)c3ccc(Cl)cc3)c(Cl)c2)c1N` (stereo not drawn), the melting point was 195 to 197 °C.

In turn, `COc1cc2c(cc1O)C(C)(C)CC2=O` came in with a melting point of 105 to 107 °C.

In turn, `CC1(C)CC(OC(=O)CCCCCCCCC(=O)OC2CC(C)(C)N(OC(=O)c3ccccc3)C(C)(C)C2)CC(C)(C)N1OC(=O)c1ccccc1` yielded a melting point of 92 to 100 °C.

With `CCCOc1nc2cccc(C(=O)OCC)c2n1Cc1ccc(-c2ccccc2-c2nnn[nH]2)cc1`, the melting point lay within 157 to 159 °C.

Regarding `CC1(C)CCC(C)(C)c2cc(-c3cc(-c4ccc(C(=O)O)cc4)ccc3OCCCCCCCCO)ccc21`, the melting point lay within 155 to 160 °C.

`CC(Oc1ncn(-c2cccc(C(F)(F)F)c2)n1)C(=O)O` (stereo not drawn) gave a melting point of 206 to 208 °C.

`COc1ccc(C2=NN(C3CCCCCC3)C(=O)[C@H]3CC=CC[C@@H]23)cc1OC(F)F` (relative stereo) came in with a melting point of 83 °C.

For `N#Cc1ccc(C(=O)N2CCc3c([nH]c4ccccc34)C2)cc1`, the melting point was 228 to 232 °C.

As to `CCCC(=O)c1cnc2c(OC)cccc2c1Nc1c(C)cc(O)cc1C`, the melting point fell in the range of 247 to 248 °C.

With `O=CNc1ccc(-c2c[nH]cn2)cc1`, the melting point fell in the range of 108 to 109 °C.

As to `N#CC1=C(C2CCCCC2=O)Nc2n[nH]cc2C1c1cccc2nonc12` (stereo not drawn), the melting point was > 270 °C.

`COC(=O)CSC1c2ccccc2C=Cc2ccccc21`: the melting point was in the range of 74 to 76 °C.

Compound `Cc1ccc(SC(Cc2ccc(OCCN(C)c3nc4ccccc4o3)cc2)C(=O)O)cc1` (stereo not drawn) came in with a melting point of 137 °C.

In turn, `COC(=O)c1cc(CO)ccc1S(=O)(=O)NC(=O)Nc1nc(OC)cc(OC)n1` came in with a melting point of 182 to 185 °C.

For `OC12CC3CC(C1)CC(O)(C3)C2`, the melting point turned out to be 169 °C.

Consider `O=S(=O)(c1ccc(F)cc1)C(F)(F)C(F)(F)C(F)(F)C(F)(F)S(=O)(=O)c1ccc(F)cc1`, for which the melting point is 126 to 127 °C.

`NS(=O)(=O)c1ccc(-c2cccc(-c3nc(-c4ccc(Cl)cc4)cc(C(F)(F)F)n3)c2)s1`: the melting point is 226 °C.

For `COc1cc(C=CC(=O)Nc2c(-c3ccccc3C)c3cc(Cl)c(C)cc3oc2=O)cc(OC)c1OC(C)=O`, the melting point lay in the range of 248 to 250 °C.

On to `Fc1cc(F)c2[nH]c3c(c2c1)CC(N1CCCCC1)CC3` (stereo not drawn), for which the melting point was > 290 °C.

Take `CC(C)CCC(=O)C(C(=O)O)C1c2ccccc2C(=O)N1c1ccc2ccc(Cl)nc2n1` (stereo not drawn): the melting point was determined as 176 °C.
